Results taken from ChEMBL document CHEMBL1151840, “Synthetic oligoribonucleotides containing arabinonucleotides act as agonists of TLR7 and 8” (Bioorg Med Chem Lett, 2009).
Activity calls are given as the source filed them. The calls are words filed in the database; no cut-off is given here.

Key:
[1] = biological target: T1, Toll-like receptor 8 (Homo sapiens) (UniProt Q9NR97); assay: Agonist activity at human TLR8 expressed in HEK293XL cells assessed as NF-kappaB activation after 18 hrs; type: functional, cell-based
T1 sequence (whole entry): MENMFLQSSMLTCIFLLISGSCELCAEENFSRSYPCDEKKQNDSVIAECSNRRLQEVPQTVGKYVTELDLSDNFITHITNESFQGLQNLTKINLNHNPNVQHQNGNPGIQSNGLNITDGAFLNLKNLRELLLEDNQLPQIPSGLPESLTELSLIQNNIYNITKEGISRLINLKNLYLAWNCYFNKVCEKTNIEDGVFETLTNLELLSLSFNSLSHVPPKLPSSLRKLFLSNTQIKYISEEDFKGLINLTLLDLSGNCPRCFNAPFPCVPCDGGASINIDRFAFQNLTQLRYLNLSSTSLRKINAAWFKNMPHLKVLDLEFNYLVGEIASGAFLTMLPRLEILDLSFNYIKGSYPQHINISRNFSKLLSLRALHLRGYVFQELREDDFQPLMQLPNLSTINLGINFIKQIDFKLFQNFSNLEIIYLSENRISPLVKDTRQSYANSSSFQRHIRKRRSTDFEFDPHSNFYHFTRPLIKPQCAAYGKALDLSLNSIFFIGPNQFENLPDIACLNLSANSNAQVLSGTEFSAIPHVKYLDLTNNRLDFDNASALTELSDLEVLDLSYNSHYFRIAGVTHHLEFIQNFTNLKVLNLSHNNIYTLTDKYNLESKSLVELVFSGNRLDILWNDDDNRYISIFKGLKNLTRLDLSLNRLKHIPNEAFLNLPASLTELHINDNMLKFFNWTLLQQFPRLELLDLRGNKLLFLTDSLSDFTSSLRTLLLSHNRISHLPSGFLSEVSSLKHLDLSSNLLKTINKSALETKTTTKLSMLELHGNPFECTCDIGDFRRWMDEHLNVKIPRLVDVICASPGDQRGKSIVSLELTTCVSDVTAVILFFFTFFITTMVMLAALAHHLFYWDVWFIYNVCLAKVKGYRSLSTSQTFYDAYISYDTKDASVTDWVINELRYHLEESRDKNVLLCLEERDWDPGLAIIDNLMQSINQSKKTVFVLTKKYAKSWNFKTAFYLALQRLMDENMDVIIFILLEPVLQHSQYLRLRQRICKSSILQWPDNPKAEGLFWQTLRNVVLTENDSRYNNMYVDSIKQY

[2] = biological target: T2, Toll-like receptor 7 (Homo sapiens) (UniProt Q9NYK1); assay: Agonist activity at human TLR7 expressed in HEK293XL cells assessed as NF-kappaB activation after 18 hrs; type: functional, cell-based
T2 sequence (whole entry): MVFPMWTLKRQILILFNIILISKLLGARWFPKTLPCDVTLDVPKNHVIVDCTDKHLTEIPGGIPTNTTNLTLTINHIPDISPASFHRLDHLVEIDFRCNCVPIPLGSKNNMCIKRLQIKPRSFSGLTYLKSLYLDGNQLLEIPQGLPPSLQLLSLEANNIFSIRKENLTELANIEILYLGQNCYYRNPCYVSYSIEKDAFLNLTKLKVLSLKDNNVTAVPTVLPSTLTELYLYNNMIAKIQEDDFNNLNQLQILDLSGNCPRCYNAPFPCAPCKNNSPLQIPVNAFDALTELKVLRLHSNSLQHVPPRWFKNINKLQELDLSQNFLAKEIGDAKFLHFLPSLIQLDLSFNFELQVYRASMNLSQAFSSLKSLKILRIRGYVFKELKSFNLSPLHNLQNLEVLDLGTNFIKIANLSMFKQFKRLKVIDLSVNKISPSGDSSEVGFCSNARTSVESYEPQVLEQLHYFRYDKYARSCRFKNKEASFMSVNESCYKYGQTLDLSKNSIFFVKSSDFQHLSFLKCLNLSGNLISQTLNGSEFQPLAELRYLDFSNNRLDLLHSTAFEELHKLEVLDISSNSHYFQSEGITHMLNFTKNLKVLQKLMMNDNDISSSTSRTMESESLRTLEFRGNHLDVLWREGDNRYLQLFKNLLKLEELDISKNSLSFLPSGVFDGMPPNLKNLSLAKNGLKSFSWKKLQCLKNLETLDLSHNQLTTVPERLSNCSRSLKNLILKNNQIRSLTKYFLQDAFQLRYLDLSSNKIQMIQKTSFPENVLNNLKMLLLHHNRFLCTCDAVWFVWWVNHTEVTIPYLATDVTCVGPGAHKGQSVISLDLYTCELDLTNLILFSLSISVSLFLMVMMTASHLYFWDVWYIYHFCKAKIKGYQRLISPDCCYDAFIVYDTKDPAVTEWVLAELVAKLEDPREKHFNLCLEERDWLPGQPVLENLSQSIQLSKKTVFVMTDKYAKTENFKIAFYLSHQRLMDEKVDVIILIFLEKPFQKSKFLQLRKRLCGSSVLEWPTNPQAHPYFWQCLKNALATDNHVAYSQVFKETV

PBMC [3] = assay: Stimulation of immune response in human PBMC assessed as induction of IL1-beta production at 150 ug/ml after 24 hrs; type: functional, cell-based
PBMC [4] = assay: Stimulation of immune response in human PBMC assessed as induction of IL2R level at 150 ug/ml after 24 hrs; type: functional, cell-based
PBMC [5] = assay: Stimulation of immune response in human PBMC assessed as induction of IL8 production at 150 ug/ml after 24 hrs; type: functional, cell-based
PBMC [6] = assay: Stimulation of immune response in human PBMC assessed as induction of IL10 production at 150 ug/ml after 24 hrs; type: functional, cell-based
PBMC [7] = assay: Stimulation of immune response in human PBMC assessed as induction of IL12 production at 150 ug/ml after 24 hrs; type: functional, cell-based
PBMC [8] = assay: Stimulation of immune response in human PBMC assessed as induction of IFNalpha production at 150 ug/ml after 24 hrs; type: functional, cell-based
PBMC [9] = assay: Stimulation of immune response in human PBMC assessed as induction of IFN-gamma production at 150 ug/ml after 24 hrs; type: functional, cell-based
PBMC [10] = assay: Stimulation of immune response in human PBMC assessed as induction of MCP1 production at 150 ug/ml after 24 hrs; type: functional, cell-based
PBMC [11] = assay: Stimulation of immune response in human PBMC assessed as induction of RANTES production at 150 ug/ml after 24 hrs; type: functional, cell-based
PBMC [12] = assay: Stimulation of immune response in human PBMC assessed as induction of MIP1alpha production at 150 ug/ml after 24 hrs; type: functional, cell-based
PBMC [13] = assay: Stimulation of immune response in human PBMC assessed as induction of MIP1beta production at 150 ug/ml after 24 hrs; type: functional, cell-based
PBMC [14] = assay: Stimulation of immune response in human PBMC assessed as induction of TNFalpha production at 150 ug/ml after 24 hrs; type: functional, cell-based
Homo sapiens [15] = species on record: Homo sapiens; assay: Stimulation of immune response in human pDC assessed as induction of IFN-gamma production at 150 ug/ml after 24 hrs; type: functional
Homo sapiens [16] = species on record: Homo sapiens; assay: Stimulation of immune response in human pDC assessed as induction of IFNalpha production at 150 ug/ml after 24 hrs; type: functional
Homo sapiens [17] = species on record: Homo sapiens; assay: Stimulation of immune response in human pDC assessed as induction of IL12 production at 150 ug/ml after 24 hrs; type: functional
Homo sapiens [18] = species on record: Homo sapiens; assay: Stimulation of immune response in human pDC assessed as induction of TNFalpha production at 150 ug/ml after 24 hrs; type: functional
Homo sapiens [19] = species on record: Homo sapiens; assay: Stimulation of immune response in human pDC assessed as induction of MIP1alpha production at 150 ug/ml after 24 hrs; type: functional
Homo sapiens [20] = species on record: Homo sapiens; assay: Stimulation of immune response in human pDC assessed as induction of MIP1beta production at 150 ug/ml after 24 hrs; type: functional
Mus musculus = assay: Stimulation of immune response in C57BL/6 mouse assessed as induction of serum IL12 production at 50 mg/kg, sc after 2 hrs by luminex multiplex assay; type: functional, organism-based; set-up: dose 50 mg/kg
[21] = Stability in human serum assessed as full-length compound remaining after 10 mins by anion-exchange HPLC; type: ADME, cell-free; details: read-out: Stability

Q: Which Activity [1] does the source give for `Nc1ccn([C@@H]2O[C@H](COP(=O)(S)O[C@H]3[C@@H](O)[C@H](n4cnc5c(N)ncnc54)O[C@@H]3COP(=O)(S)O[C@H]3[C@@H](O)[C@H](n4cnc5c(=O)[nH]c(N)nc54)O[C@@H]3COP(=O)(S)O[C@H]3[C@@H](O)[C@H](n4ccc(=O)[nH]c4=O)O[C@@H]3COP(=O)(S)O[C@H]3[C@@H](O)[C@H](n4cnc5c(=O)[nH]c(N)nc54)O[C@@H]3COP(=O)(S)O[C@H]3[C@@H](O)[C@H](n4ccc(=O)[nH]c4=O)O[C@@H]3COP(=O)(S)O[C@H]3[C@@H](O)[C@H](n4cnc5c(=O)[nH]c(N)nc54)O[C@@H]3COP(=O)(S)O[C@H]3[C@@H](O)[C@H](n4ccc(=O)[nH]c4=O)O[C@@H]3COP(=O)(S)O[C@H]3[C@@H](O)[C@H](n4ccc(=O)[nH]c4=O)O[C@@H]3COP(=O)(S)O[C@H]3[C@@H](O)[C@H](n4cnc5c(=O)[nH]c(N)nc54)O[C@@H]3COP(=O)(S)O[C@H]3[C@@H](O)[C@H](n4ccc(=O)[nH]c4=O)O[C@H]3CO)[C@@H](OP(=O)(S)OCC(O)COP(=O)(S)O[C@H]3[C@@H](O)[C@H](n4ccc(N)nc4=O)O[C@@H]3COP(=O)(S)O[C@H]3[C@@H](O)[C@H](n4cnc5c(N)ncnc54)O[C@@H]3COP(=O)(S)O[C@H]3[C@@H](O)[C@H](n4cnc5c(=O)[nH]c(N)nc54)O[C@@H]3COP(=O)(S)O[C@H]3[C@@H](O)[C@H](n4ccc(=O)[nH]c4=O)O[C@@H]3COP(=O)(S)O[C@H]3[C@@H](O)[C@H](n4cnc5c(=O)[nH]c(N)nc54)O[C@@H]3COP(=O)(S)O[C@H]3[C@@H](O)[C@H](n4ccc(=O)[nH]c4=O)O[C@@H]3COP(=O)(S)O[C@H]3[C@@H](O)[C@H](n4cnc5c(=O)[nH]c(N)nc54)O[C@@H]3COP(=O)(S)O[C@H]3[C@@H](O)[C@H](n4ccc(=O)[nH]c4=O)O[C@@H]3COP(=O)(S)O[C@H]3[C@@H](O)[C@H](n4ccc(=O)[nH]c4=O)O[C@@H]3COP(=O)(S)O[C@H]3[C@@H](O)[C@H](n4cnc5c(=O)[nH]c(N)nc54)O[C@@H]3COP(=O)(S)O[C@H]3[C@@H](O)[C@H](n4ccc(=O)[nH]c4=O)O[C@@H]3CO)[C@H]2O)c(=O)n1` (stereo in doubt; 5) here?
A: Dose-dependent effect

Q: And the Activity [2]?
A: inactive

Q: And the Activity (PBMC [3])?
A: Active

Q: And the Activity (PBMC [4])?
A: Active

Q: And the Activity (PBMC [5])?
A: Active

Q: What about the Activity (PBMC [6]) of the same compound?
A: Active

Q: And the Activity (PBMC [7])?
A: Active

Q: What about the Activity (PBMC [8]) of the same compound?
A: Active

Q: What about the Activity (PBMC [9]) of the same compound?
A: Active

Q: What about the Activity (PBMC [10]) of the same compound?
A: Active

Q: And the Activity (PBMC [11])?
A: Active

Q: What about the Activity (PBMC [12]) of the same compound?
A: Active

Q: What about the Activity (PBMC [13]) of the same compound?
A: Active

Q: What about the Activity (PBMC [14]) of the same compound?
A: Active

Q: And the Activity (Homo sapiens [15])?
A: Active

Q: What about the Activity (Homo sapiens [16]) of the same compound?
A: inactive

Q: And the Activity (Homo sapiens [17])?
A: Active

Q: And the Activity (Homo sapiens [18])?
A: Active

Q: What about the Activity (Homo sapiens [19]) of the same compound?
A: Active

Q: What about the Activity (Homo sapiens [20]) of the same compound?
A: Active

Q: What about the Activity (Mus musculus) of the same compound?
A: inactive

Q: Which remaining at 10 min [21] does the source give for `Nc1ccn([C@@H]2O[C@H](COP(=O)(S)O[C@H]3[C@@H](O)[C@H](n4cnc5c(N)ncnc54)O[C@@H]3COP(=O)(S)O[C@H]3[C@@H](O)[C@H](n4cnc5c(=O)[nH]c(N)nc54)O[C@@H]3COP(=O)(S)O[C@H]3[C@@H](O)[C@H](n4ccc(=O)[nH]c4=O)O[C@@H]3COP(=O)(S)O[C@H]3[C@@H](O)[C@H](n4cnc5c(=O)[nH]c(N)nc54)O[C@@H]3COP(=O)(S)O[C@H]3[C@@H](O)[C@H](n4ccc(=O)[nH]c4=O)O[C@@H]3COP(=O)(S)O[C@H]3[C@@H](O)[C@H](n4cnc5c(=O)[nH]c(N)nc54)O[C@@H]3COP(=O)(S)O[C@H]3[C@@H](O)[C@H](n4ccc(=O)[nH]c4=O)O[C@@H]3COP(=O)(S)O[C@H]3[C@@H](O)[C@H](n4ccc(=O)[nH]c4=O)O[C@@H]3COP(=O)(S)O[C@H]3[C@@H](O)[C@H](n4cnc5c(=O)[nH]c(N)nc54)O[C@@H]3COP(=O)(S)O[C@H]3[C@@H](O)[C@H](n4ccc(=O)[nH]c4=O)O[C@H]3CO)[C@@H](OP(=O)(S)OCC(O)COP(=O)(S)O[C@H]3[C@@H](O)[C@H](n4ccc(N)nc4=O)O[C@@H]3COP(=O)(S)O[C@H]3[C@@H](O)[C@H](n4cnc5c(N)ncnc54)O[C@@H]3COP(=O)(S)O[C@H]3[C@@H](O)[C@H](n4cnc5c(=O)[nH]c(N)nc54)O[C@@H]3COP(=O)(S)O[C@H]3[C@@H](O)[C@H](n4ccc(=O)[nH]c4=O)O[C@@H]3COP(=O)(S)O[C@H]3[C@@H](O)[C@H](n4cnc5c(=O)[nH]c(N)nc54)O[C@@H]3COP(=O)(S)O[C@H]3[C@@H](O)[C@H](n4ccc(=O)[nH]c4=O)O[C@@H]3COP(=O)(S)O[C@H]3[C@@H](O)[C@H](n4cnc5c(=O)[nH]c(N)nc54)O[C@@H]3COP(=O)(S)O[C@H]3[C@@H](O)[C@H](n4ccc(=O)[nH]c4=O)O[C@@H]3COP(=O)(S)O[C@H]3[C@@H](O)[C@H](n4ccc(=O)[nH]c4=O)O[C@@H]3COP(=O)(S)O[C@H]3[C@@H](O)[C@H](n4cnc5c(=O)[nH]c(N)nc54)O[C@@H]3COP(=O)(S)O[C@H]3[C@@H](O)[C@H](n4ccc(=O)[nH]c4=O)O[C@@H]3CO)[C@H]2O)c(=O)n1` (stereo in doubt; 6) here?
A: 76%
